Measured values as given in ChEMBL document CHEMBL1152560, “Substituted 2-arylbenzothiazoles as kinase inhibitors: hit-to-lead optimization” (Bioorg Med Chem, 2009).

Experiments:
[1] = biological target: Casein kinase I isoform alpha (Homo sapiens) (UniProt P48729); experiment: Residual activity of CK1alpha1 at 1 uM by microplate scintillation counting
[2] = biological target: Casein kinase I isoform gamma-2 (Homo sapiens) (UniProt P78368); experiment: Residual activity of CK1gamma2 at 1 uM by microplate scintillation counting
[3] = biological target: Receptor tyrosine-protein kinase erbB-2 (Homo sapiens, UniProt P04626); experiment: Residual activity of ERBB2 at 1 uM by microplate scintillation counting
[4] = biological target: G protein-coupled receptor kinase 6 (Homo sapiens) (UniProt P43250); experiment: Residual activity of GRK6 at 1 uM by microplate scintillation counting
[5] = biological target: Tyrosine-protein kinase Fer (Homo sapiens) (UniProt P16591); experiment: Residual activity of FER at 0.1 uM by microplate scintillation counting
[6] = biological target: T1, G protein-coupled receptor kinase 3 (Homo sapiens) (UniProt P35626); experiment: Residual activity of GRK3 at 0.1 uM by microplate scintillation counting
T1 sequence (whole entry): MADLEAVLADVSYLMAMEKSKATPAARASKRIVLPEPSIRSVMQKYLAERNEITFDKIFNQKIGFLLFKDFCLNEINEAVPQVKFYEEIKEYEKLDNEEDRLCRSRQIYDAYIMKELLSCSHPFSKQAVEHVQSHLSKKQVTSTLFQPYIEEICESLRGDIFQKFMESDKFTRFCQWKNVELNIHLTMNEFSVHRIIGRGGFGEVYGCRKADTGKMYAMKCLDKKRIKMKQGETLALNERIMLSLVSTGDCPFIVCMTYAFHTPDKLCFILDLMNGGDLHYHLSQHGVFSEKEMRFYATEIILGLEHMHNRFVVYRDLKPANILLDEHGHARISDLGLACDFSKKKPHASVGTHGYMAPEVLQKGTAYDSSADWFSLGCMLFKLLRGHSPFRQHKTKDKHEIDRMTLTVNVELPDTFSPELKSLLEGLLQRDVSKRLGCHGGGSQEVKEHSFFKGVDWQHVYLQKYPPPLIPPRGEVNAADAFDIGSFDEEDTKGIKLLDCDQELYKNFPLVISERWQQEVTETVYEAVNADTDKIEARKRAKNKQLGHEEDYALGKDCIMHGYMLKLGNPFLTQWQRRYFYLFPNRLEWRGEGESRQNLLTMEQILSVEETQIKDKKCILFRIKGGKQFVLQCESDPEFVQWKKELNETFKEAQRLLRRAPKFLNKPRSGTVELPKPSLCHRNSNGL

[7] = biological target: Insulin receptor (Homo sapiens) (UniProt P06213); experiment: Residual activity of INSR at 0.1 uM by microplate scintillation counting
[8] = biological target: Serine/threonine-protein kinase PLK3 (Homo sapiens) (UniProt Q9H4B4); experiment: Residual activity of PLK3 at 1 uM by microplate scintillation counting
[9] = biological target: Rho-associated protein kinase 1 (Homo sapiens) (UniProt Q13464); experiment: Residual activity of ROCK1 at 1 uM by microplate scintillation counting
[10] = biological target: Death-associated protein kinase 3 (Homo sapiens) (UniProt O43293); experiment: Residual activity of DAPK3 at 10 uM by microplate scintillation counting
[11] = biological target: Mitogen-activated protein kinase 8 (Homo sapiens) (UniProt P45983); experiment: Residual activity of JNK1 at 10 uM by microplate scintillation counting
[12] = biological target: T2, Megakaryocyte-associated tyrosine-protein kinase (Homo sapiens) (UniProt P42679); experiment: Residual activity of MATK at 10 uM by microplate scintillation counting
T2 sequence (whole entry): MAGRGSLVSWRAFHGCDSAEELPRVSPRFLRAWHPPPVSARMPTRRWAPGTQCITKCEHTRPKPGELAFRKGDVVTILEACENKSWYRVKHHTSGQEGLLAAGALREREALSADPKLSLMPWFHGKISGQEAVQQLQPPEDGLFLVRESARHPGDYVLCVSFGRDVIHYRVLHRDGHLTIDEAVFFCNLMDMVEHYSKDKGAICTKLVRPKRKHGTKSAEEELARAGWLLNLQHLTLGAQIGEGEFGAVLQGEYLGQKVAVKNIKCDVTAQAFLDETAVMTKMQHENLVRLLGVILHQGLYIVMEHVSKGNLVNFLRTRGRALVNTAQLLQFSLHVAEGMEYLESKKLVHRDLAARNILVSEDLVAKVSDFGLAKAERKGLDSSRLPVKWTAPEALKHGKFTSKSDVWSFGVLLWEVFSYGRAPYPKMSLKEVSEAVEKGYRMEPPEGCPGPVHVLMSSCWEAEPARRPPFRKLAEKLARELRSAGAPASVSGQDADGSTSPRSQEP

[13] = biological target: Mitogen-activated protein kinase 11 (Homo sapiens) (UniProt Q15759); experiment: Residual activity of p38beta at 10 uM by microplate scintillation counting
[14] = biological target: T3, Phosphorylase b kinase gamma catalytic chain, liver/testis isoform (Homo sapiens) (UniProt P15735); experiment: Residual activity of PHKG2 at 10 uM by microplate scintillation counting
T3 sequence (whole entry): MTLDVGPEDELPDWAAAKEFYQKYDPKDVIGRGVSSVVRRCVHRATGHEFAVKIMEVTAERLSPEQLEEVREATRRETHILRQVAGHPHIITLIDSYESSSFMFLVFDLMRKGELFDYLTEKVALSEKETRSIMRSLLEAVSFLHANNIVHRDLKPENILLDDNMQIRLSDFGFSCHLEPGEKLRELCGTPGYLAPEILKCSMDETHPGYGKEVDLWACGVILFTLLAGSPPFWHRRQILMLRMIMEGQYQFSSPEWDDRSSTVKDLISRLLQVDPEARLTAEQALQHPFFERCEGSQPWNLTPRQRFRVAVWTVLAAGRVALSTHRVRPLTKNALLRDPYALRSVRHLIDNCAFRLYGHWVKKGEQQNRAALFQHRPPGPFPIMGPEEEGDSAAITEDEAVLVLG

[15] = biological target: Tyrosine-protein kinase Blk (Homo sapiens) (UniProt P51451); experiment: Residual activity of BLK at 0.1 uM by microplate scintillation counting
[16] = biological target: Cyclin-dependent kinase 1/cyclin B1 (Homo sapiens) (UniProt P06493+P14635); experiment: Residual activity of CDK1/CyclinB1 at 0.1 uM by microplate scintillation counting; assay type: protein-complex assay
[17] = biological target: T4, cAMP-dependent protein kinase catalytic subunit PRKX (Homo sapiens) (UniProt P51817); experiment: Residual activity of PRKX at 0.1 uM by microplate scintillation counting
T4 sequence (whole entry): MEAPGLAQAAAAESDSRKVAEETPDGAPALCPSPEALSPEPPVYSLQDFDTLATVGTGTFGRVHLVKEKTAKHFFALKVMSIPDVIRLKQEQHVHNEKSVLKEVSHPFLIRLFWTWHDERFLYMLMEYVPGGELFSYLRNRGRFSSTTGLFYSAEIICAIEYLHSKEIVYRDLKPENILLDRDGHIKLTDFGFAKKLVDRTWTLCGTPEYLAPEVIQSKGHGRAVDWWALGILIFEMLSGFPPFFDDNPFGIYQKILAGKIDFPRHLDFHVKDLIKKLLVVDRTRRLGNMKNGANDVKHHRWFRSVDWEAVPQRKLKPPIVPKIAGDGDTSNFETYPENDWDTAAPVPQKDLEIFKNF

Death-associated protein kinase 3 (Homo sapiens), sequence (O43293 whole entry, looked up): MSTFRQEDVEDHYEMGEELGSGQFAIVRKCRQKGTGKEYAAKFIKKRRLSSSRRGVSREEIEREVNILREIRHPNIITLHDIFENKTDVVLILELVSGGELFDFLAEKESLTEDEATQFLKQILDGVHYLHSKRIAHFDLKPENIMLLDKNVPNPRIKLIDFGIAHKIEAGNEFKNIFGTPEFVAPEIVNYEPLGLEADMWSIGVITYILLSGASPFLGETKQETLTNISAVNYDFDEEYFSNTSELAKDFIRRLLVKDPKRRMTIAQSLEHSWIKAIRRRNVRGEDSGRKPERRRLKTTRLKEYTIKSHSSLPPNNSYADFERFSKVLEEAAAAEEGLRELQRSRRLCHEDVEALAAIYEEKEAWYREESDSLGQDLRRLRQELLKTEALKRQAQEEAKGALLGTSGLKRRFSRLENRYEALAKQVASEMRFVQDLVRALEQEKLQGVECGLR
Tyrosine-protein kinase Fer (Homo sapiens), sequence (P16591 whole entry, looked up): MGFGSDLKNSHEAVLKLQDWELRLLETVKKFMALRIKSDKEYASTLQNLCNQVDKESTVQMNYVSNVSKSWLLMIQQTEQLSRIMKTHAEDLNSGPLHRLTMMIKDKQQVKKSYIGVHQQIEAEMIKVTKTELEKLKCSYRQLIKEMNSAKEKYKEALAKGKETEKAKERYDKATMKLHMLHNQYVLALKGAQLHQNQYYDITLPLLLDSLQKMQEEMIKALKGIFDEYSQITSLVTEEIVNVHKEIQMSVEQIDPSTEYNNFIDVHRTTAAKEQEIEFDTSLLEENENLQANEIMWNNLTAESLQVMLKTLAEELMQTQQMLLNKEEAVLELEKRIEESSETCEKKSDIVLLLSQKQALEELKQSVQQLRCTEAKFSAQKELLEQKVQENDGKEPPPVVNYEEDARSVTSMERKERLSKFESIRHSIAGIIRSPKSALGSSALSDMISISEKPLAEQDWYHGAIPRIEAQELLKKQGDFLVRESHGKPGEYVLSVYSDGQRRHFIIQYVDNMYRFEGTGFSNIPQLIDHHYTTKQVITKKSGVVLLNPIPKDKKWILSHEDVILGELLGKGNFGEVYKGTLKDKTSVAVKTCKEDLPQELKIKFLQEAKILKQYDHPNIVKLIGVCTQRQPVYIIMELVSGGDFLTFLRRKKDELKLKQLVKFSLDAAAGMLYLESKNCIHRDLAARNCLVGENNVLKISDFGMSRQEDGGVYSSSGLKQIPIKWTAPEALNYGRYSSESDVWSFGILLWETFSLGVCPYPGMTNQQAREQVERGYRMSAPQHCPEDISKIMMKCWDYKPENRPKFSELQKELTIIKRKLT
G protein-coupled receptor kinase 6 (Homo sapiens), sequence (P43250 whole entry, looked up): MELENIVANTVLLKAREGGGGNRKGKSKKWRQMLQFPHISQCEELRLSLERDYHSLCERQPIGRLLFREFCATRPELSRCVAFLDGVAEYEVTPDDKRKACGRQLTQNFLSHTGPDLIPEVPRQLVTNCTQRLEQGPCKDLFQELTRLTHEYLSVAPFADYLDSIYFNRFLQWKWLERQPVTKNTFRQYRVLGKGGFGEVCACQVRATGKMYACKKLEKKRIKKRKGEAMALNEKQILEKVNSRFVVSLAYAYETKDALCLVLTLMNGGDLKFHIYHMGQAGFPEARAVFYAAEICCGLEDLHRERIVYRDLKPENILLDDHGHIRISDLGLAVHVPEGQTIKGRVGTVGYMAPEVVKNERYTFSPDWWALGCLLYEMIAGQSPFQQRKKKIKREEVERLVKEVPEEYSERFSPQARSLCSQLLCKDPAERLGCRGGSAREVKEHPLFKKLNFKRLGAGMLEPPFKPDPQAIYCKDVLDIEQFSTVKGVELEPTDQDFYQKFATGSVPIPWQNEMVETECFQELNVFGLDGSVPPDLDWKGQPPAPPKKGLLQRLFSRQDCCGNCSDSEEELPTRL
Mitogen-activated protein kinase 11 (Homo sapiens), sequence (Q15759 whole entry, canonical isoform): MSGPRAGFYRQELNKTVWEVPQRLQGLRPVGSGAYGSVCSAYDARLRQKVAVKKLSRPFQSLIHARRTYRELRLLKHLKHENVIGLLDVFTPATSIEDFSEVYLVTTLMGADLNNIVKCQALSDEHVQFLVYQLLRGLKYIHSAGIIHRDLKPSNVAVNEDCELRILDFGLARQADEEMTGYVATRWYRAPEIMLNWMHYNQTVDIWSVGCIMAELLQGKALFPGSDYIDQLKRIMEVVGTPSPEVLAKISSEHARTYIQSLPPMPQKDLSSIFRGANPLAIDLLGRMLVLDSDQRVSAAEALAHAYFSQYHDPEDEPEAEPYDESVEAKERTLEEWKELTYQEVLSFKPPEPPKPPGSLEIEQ
Receptor tyrosine-protein kinase erbB-2, sequence (P04626 whole entry): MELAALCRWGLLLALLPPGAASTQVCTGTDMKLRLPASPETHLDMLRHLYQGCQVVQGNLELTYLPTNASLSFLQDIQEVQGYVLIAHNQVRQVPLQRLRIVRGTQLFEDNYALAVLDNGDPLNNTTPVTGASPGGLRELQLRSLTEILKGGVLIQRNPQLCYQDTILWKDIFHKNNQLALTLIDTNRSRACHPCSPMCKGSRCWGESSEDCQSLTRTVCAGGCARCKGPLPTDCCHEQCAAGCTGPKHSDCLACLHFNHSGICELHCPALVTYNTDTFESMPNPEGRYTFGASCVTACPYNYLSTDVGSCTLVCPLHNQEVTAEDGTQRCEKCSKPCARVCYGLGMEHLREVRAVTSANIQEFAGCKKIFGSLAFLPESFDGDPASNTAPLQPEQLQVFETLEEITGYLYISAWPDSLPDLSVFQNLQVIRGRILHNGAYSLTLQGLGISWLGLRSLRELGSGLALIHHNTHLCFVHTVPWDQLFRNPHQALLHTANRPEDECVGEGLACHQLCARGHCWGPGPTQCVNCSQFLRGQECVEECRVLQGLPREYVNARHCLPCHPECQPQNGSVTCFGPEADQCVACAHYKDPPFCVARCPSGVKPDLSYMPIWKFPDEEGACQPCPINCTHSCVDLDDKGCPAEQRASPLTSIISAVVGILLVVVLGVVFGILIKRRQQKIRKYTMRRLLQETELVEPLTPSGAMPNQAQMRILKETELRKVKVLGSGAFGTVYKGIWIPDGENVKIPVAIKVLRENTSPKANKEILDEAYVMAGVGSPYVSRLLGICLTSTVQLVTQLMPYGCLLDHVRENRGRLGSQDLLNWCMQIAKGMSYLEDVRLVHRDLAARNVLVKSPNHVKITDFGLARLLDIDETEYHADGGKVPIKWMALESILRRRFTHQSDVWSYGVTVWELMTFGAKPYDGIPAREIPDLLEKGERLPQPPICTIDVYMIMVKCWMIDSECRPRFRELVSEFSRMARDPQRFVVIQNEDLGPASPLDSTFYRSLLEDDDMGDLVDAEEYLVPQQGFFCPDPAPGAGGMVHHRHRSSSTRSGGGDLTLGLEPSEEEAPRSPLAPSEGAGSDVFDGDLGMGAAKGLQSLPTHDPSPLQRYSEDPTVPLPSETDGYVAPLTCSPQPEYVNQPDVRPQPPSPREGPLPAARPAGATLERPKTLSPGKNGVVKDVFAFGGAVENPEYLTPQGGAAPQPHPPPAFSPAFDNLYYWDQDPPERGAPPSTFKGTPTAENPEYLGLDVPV
Cyclin-dependent kinase 1/cyclin B1 (Homo sapiens), sequence (P06493 whole entry, looked up): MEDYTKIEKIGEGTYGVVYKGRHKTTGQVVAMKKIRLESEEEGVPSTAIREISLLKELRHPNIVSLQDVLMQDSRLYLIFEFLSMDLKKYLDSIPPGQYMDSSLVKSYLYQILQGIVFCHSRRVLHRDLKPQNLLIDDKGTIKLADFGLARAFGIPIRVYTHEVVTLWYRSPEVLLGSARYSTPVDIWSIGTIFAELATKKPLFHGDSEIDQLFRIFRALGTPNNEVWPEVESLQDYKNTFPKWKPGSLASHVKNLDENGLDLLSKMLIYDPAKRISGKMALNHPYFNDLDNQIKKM
Cyclin-dependent kinase 1/cyclin B1 (Homo sapiens), sequence (P14635 whole entry, looked up): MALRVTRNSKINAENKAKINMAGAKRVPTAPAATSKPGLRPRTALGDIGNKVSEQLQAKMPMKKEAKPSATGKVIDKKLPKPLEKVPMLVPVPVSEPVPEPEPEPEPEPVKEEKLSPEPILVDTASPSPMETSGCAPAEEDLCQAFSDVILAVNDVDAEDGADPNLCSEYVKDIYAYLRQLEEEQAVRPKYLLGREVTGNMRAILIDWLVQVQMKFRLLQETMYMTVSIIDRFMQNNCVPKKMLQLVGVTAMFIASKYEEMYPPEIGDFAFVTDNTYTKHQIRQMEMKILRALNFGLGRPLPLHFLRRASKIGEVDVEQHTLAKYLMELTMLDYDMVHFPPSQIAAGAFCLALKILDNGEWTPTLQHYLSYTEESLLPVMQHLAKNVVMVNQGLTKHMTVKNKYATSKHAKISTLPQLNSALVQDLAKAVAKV
Casein kinase I isoform gamma-2 (Homo sapiens), sequence (P78368 whole entry, looked up, canonical isoform): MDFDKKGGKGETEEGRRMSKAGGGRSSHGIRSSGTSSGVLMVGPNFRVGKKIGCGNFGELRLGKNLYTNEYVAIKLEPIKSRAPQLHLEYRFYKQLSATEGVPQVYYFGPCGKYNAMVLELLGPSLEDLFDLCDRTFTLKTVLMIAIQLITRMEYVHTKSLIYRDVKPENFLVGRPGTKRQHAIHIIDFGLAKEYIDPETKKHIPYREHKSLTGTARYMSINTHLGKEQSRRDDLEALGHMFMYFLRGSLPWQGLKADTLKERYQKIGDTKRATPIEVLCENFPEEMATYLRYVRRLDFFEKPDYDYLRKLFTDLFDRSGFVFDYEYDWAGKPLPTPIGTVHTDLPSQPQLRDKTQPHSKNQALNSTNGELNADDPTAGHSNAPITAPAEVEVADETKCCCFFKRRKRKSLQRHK
Casein kinase I isoform alpha (Homo sapiens), sequence (P48729 2-337 limits assumed): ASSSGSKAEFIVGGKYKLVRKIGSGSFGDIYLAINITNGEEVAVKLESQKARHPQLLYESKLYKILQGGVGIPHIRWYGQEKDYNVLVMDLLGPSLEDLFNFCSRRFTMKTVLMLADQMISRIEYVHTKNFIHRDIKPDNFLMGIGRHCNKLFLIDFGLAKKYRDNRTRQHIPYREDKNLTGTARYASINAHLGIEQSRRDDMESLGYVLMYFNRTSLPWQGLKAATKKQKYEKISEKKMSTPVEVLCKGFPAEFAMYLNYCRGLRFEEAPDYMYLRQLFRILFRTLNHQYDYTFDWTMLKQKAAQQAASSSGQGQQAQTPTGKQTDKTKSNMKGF

| residual activity [1] | residual activity [2] | residual activity [3] | residual activity [4] | residual activity [5] | residual activity [6] | residual activity [7] | residual activity [8] | residual activity [9] | residual activity [11] | residual activity [12] | residual activity [13] | residual activity [14] | residual activity [15] | residual activity [16] | residual activity [17] | Compound | residual activity [10] |
| --- | --- | --- | --- | --- | --- | --- | --- | --- | --- | --- | --- | --- | --- | --- | --- | --- | --- |
| 102% | 107% | 128% | 90% | 96% | 86% | 96% | 101% | 93% | 305% | 267% | 337% | 93% | 97% | 84% | 86% | COc1cc2c(Oc3ccc(-c4nc5ccccc5s4)cc3)ncnc2cc1OCCCN1CCCC1 | 90% |
| 103% | 100% | 99% | 93% | 108% | 95% | 96% | 94% | 105% | 264% | 215% | 337% | 88% | 89% | 87% | 93% | COc1cc2c(Oc3ccc(-c4nc5ccccc5s4)cc3F)ncnc2cc1OCCCN1CCN(C)CC1 | 89% |
| 99% | 98% | 98% | 80% | 104% | 94% | 100% | 100% | 102% | 272% | 377% | 350% | 103% | 90% | 90% | 90% | COc1cc2c(Oc3ccc(-c4nc5ccccc5s4)cc3)ncnc2cc1OCCCN1CCN(C)CC1 | 96% |
